Experimental data published in patent publication US10918620B2, “Use of statins for periodontal disease and bone regeneration” (priority 2012, dated 2021).

Assays:
[1] = test system: release of cytokines and neutrophil adhesion to venous endothelium; details: pretreatment; patients undergoing coronary artery bypass surgery, bypass, or cardiopulmonary graft; cited from earlier work
[2] = test system: IL-6, IL-10, C-reactive protein (CRP) in GCF; experiment: Cohort study of systemic statin therapy: inflammation biomarkers in gingival crevicular fluid by Elisa; format: in vivo, human
Source text: Measurements at Gingival Crevicular Fluid Level (GCF).
Upon confirmation of periodontal diagnosis, samplings of GCF were taken by standard procedures. These are described below:
Two sites were selected from each quadrant which PD is higher. After isolating the tooth with cotton balls, supra-gingival plaque was removed with a curette without touching the gingival margin. Crevicular site was gently dried with air. The GCF was collected with paper cones. The paper points were inserted into the sulcus/pocket until feeling a medium resistance and were left for 40 seconds. Cones contaminated with saliva or blood were excluded. Later the paper cones were placed in a tube. GCF samples were storage at −80° C.
IL-6, IL-10, and C-reactive protein (CRP) were measured as inflammation biomarkers. Measurements were performed through Elisa test. Measurements were performed at the start of the study and after 6 months for both groups of patients, with and without indication of statins.

periodontal disease = experiment: Concurrent cohort study of systemic statin therapy: periodontal clinical parameters (BOP, PISA); format: in vivo, human; details: patients taking statins (Atorvastatin 20 mg every 24 hours, systemic); 6 months
Protocol: A concurrent cohort study was perform, with two groups of patients, some exposed to statin therapy and some not exposed to statin therapy. Patient submitted to statin therapy received Atorvastatin 20 mg, every 24 hours, indicated as part of a preventive cardiologic therapy.
The eligible patients were those that meet the following inclusion criteria: a) informed consent, b) over 35 years, c) with at least 14 natural teeth in the mouth (excluding third molars), d) have some degree of periodontal disease.
Measures were taken when starting the study and after 6 months for both groups of patients. The examination included probing depth (PD), clinical attachment level (CAL) and bleeding on probing index (BOP).
Periodontal probing was performed to each tooth at 6 sites (mesiovestibular, mediovestibular, distovestibular, mesiolingual/palatal, mediolingual/palatal and distolingual/palatal). CAL was defined as the distance from the cementoenamel junction to the pocket bottom. […] BI was determined by assigning a “+” sign to the presence of bleeding on probing in vestibular and/or palatal of the examined tooth and with a “−” sign to the absence of bleeding. […]
Periodontal Inflamed Surface Area (PISA) was also calculated using data insertion loss, gingival recession and bleeding on probing. […]

[3] = test system: Human PBMC stimulated with PHA (T cells); experiment: Proliferation of T cells evaluation (CellTrace Violet, flow cytometry); format: cell-based; details: PHA 25 μg/ml, 4 days; FIG. 2
Protocol: The specific objectives of this assay were to evaluate the degree of cell toxicity (cell viability measured in dead % of T cells) and the level of T cell proliferation under a specific stimulus in the presence of: Human PBMC derived from healthy control donors were stimulated with PHA, 25 μg/ml, in presence or absence of Atorvastatin (AT) in various formulations: irradiated (ATi) or non-irradiated (ATni) Atorvastatin, soluble or toothpaste. […] Later cells were harvested and stained with anti-CD4 antibody conjugated to FITC and the samples were analyzed by flow cytometer Beckman Coulter XL.

[4] = test system: 52 bacteria isolated from subgingival plaque; details: cited from earlier work
[5] = test system: supragingival bacterial plaque and gingival inflammation; details: clinical results, mouthwash; cited from earlier work

## CC(C)c1c(C(=O)Nc2ccccc2)c(-c2ccccc2)c(-c2ccc(F)cc2)n1CC[C@@H](O)C[C@@H](O)CC(=O)O [atorvastatin]
[1]
  release of cytokines and neutrophil adhesion to venous endothelium: significantly reduce the release of cytokines and neutrophil adhesion to venous endothelium

## CC(C)c1c(C(=O)Nc2ccccc2)c(-c2ccccc2)c(-c2ccc(F)cc2)n1CC[C@@H](O)C[C@@H](O)CC(=O)O [statins, Atorvastatin]
[2]; patients consuming statins (Atorvastatin 20 mg every 24 hours), patients without statins 4.8 pg/ml
  levels of IL-6 in GCF, average: 0.47 pg/mL
[2]; patients consuming statins vs patients without statins use
  reduction of IL-6 in GCF: 90.1%
[2]; patients taking statins, average in patients not consuming statins 1.23 pg/ml
  levels of IL-10 in GCF: no IL-10 could be detected
[2]; patients taking systemic statins
  reduction of levels of CRP (C-reactive protein) in GCF: 93%
Periodontal disease
  reduction of area of periodontal inflammation measured by the PISA index: 58.66%
  reduction of bleeding on probing index (BOP): 60.89%

## CC(C)c1c(C(=O)Nc2ccccc2)c(-c2ccccc2)c(-c2ccc(F)cc2)n1CC[C@@H](O)C[C@@H](O)CC(=O)O [Soluble ATi, Atorvastatin]
[3]
  T cell proliferation (immunomodulatory behavior): reduces immune cell proliferation

## [H]/N=C(\N/C(=N/[H])NCCCCCCNC(=N)NC(=N)Nc1ccc(Cl)cc1)Nc1ccc(Cl)cc1 [chlorhexidine]
[4]
  antimicrobial resistance: has not been detected
  concentration at which all bacteria isolated from patients with periodontitis were inhibited: 250 mg/mL
[5]
  decreased levels of gingival inflammation: 45%
  decreased levels of supragingival bacterial plaque: 55%
